Square brackets hold non-standard residues; d marks the D form. Ends that are not written are not given here.

From patent publication US20240368668A1, “SUBSTRATES AND BIOMARKERS OF ADAMTS7” (The Broad Institute, Inc., priority 2021, published 2024) come the findings set out here.

The first experiment has as its system mouse ADAMTS7. Kind of experiment: TMT10 TAILS N-terminomics, SMC2 experiment (process replicates, trypsin/AspN digest). The following applies: SMC2_TAILS HC; log fold change of N-terminal peptide, Ad-mADAMTS7 WT over EQ. Format: cell-based. In outline: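 Full-length mouse ADAMTS7 (WT or E373Q mutant, C-terminal 3xFLAG) or luciferase was transduced via adenovirus, 50 MOI, into HCA-SMC (SMC1, SMC2) or HUVEC. SMC1: pooled media, technical triplicates 400 ug; SMC2: process triplicates 300 ug; HUVEC: process triplicates 200 ug, bFGF2 10 ng/ml.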
The substance “VCAN_3367 (FKNSSSAK; listed as Homo sapiens)” registered a logFC.mWT.over.mEQ of 1.51.
As for “VIM_276 (YESVAAKNLQ; listed as Homo sapiens)”, the logFC.mWT.over.mEQ came to 0.83.
On the same count and under the same terms, with “VIM_322 (QVQSLTCEV; listed as Homo sapiens)” the figure was 1.11.
Still for that read-out and setting: as for “ZSCAN4_25 (FQQSQGPAVQR; listed as Homo sapiens)”, the figure is 2.89.

Staying with this experiment, now noted: SMC2_TAILS HC; log fold change, mWT over mEQ.
In turn, “ACTG1_105 (LTEAPLNPKANR; listed as Homo sapiens)” registered a logFC.mWT.over.mEQ of 2.11.
Still for that read-out and setting: as for “ACTN4_5 (HAANQSYQYGPSSAGNGAGGGGSMG; listed as Homo sapiens)”, the figure is 2.64; as for “ADAM9_74 (GKEHIIHLER; listed as Homo sapiens)”, 4.31; as for “ADAM10_86 (FKVETSNKVL; listed as Homo sapiens)”, 2.74.
The same measure, in the same setting: as for “ADNP2_375 (SQPVGPVNK; listed as Homo sapiens)”, the figure is 0.75; as for “AMER2_654 (LAGTTIRATACH; listed as Homo sapiens)”, 0.90; as for “APLP2_452 (LVETHLAR; listed as Homo sapiens)”, 2.59.
The same measure, in the same setting: as for “APOA1_86 (EQLGPVTQEFW; listed as Homo sapiens)”, the figure is 1.88; as for “BMPER_43 (LTGSVAKCENEG; listed as Homo sapiens)”, 2.43.
In turn, “CALU_176 (FTAFLHPEEY; listed as Homo sapiens)” had a logFC.mWT.over.mEQ of 2.38.
The substance “CAP1_300 (FSAPKPQTSPSPKR; listed as Homo sapiens)” returned a logFC.mWT.over.mEQ of 2.81.
As to “CCL2_28 (INAPVTCCYNFTNR; listed as Homo sapiens)”, the logFC.mWT.over.mEQ is reported as 1.46.
In turn, “CEP192_728 (DKSTAGR; listed as Homo sapiens)” came in with a logFC.mWT.over.mEQ of 2.95.
Regarding “CTSB_109 (WAFGAVEAIS; listed as Homo sapiens)”, the logFC.mWT.over.mEQ came to 1.73.
In the case of “DBN1_434 (APVEPATA; listed as Homo sapiens)”, the logFC.mWT.over.mEQ worked out at 1.57.
In turn, “DIS3L_75 (FPELKGIIFMQTACQAVQHQR; listed as Homo sapiens)” came in with a logFC.mWT.over.mEQ of 1.78.
On the same count and under the same terms, with “ECM1_38 (FQEVGYAAPPSPPLSR; listed as Homo sapiens)” the figure was 1.57; with “ECM1_44 (AAPPSPPLSR; listed as Homo sapiens)”, 2.54.
On the same count and under the same terms, as for “ECM1_108 (QEAVPLQK; listed as Homo sapiens)”, the figure is 3.34; as for “EEF1G_23 (QYSGAQVR; listed as Homo sapiens)”, 3.30.
In the case of “EIF4B_426 (QTGTSTTSSR; listed as Homo sapiens)”, the logFC.mWT.over.mEQ turned out to be 5.12.
For “EMSY_943 (QTVVQVLAVK; listed as Homo sapiens)”, the logFC.mWT.over.mEQ is on record as 0.92.
As to “FBLN2_665 (FSQVASNTIPLPLPQPNTCK; listed as Homo sapiens)”, the logFC.mWT.over.mEQ is 1.89.
“FLNA_689 (VNKPAEFTV; listed as Homo sapiens)” had a logFC.mWT.over.mEQ of 6.12.
“FLNC_2649 (FVGQKNSFTV; listed as Homo sapiens)” returned a logFC.mWT.over.mEQ of 3.97.
The same measure, in the same setting: as for “FN1_35 ([code q]MVQPQSPVAVSQSKPGCY; not fully specified (residue 2); listed as Homo sapiens)”, the figure is 2.08.
Still for that read-out and setting: with “FN1_99 (DKYTGNTYR; listed as Homo sapiens)” the figure was 1.43; with “FN1_607 (SSSGPVEVFIT; listed as Homo sapiens)”, 0.63; with “FN1_1693 (LQPTVEYVVSVYAQNPSG; listed as Homo sapiens)”, 2.05.
On the same count and under the same terms, as for “FN1_1780 (LQGLRPGSEYTVSVVALH; listed as Homo sapiens)”, the figure is 2.01; as for “FN1_1805 (LIGTQSTAIPAPT; listed as Homo sapiens)”, 1.73; as for “FN1_2113 (FVTHPGY; listed as Homo sapiens)”, 1.57.
Substance “FOXG1_235 (LNKCFVKVPRHY; listed as Homo sapiens)” had a logFC.mWT.over.mEQ of 3.34.
Still for that read-out and setting: with “FSTL_1290 (LQKHQETA; listed as Homo sapiens)” the figure was 2.86; with “HEG1_51 (GLELQLER; listed as Homo sapiens)”, 0.65; with “HEG1_224 (FQTKSGTAS; listed as Homo sapiens)”, 3.25.
Regarding “KCND1_436 (RLAKSGTTNAFLQYKQNGGLE; listed as Homo sapiens)”, the logFC.mWT.over.mEQ stood at 1.74.
On the same count and under the same terms, with “KRT28_2 (SLQFSNGSR; listed as Homo sapiens)” the figure was 2.22; with “LASP1_182 (SYGGYKEPAAPVSIQR; listed as Homo sapiens)”, 1.01.
Still for that read-out and setting: with “LOXL1_157 (SVSASAFASTYR; listed as Homo sapiens)” the figure was 2.90; with “LOX_60 (LGSQYQPQR; listed as Homo sapiens)”, 1.59; with “LOX_125 (FQAGYSTSR; listed as Homo sapiens)”, 3.33.

Still in this experiment, the particulars now being: TAILS HC Overlap; SMC2; log fold change mouse ADAMTS7 WT over catalytically inactive EQ.
Turning to “FSTL1_290 (LQKHQETA; listed as Homo sapiens)”, the “SMC2 logFC.mWT.over.mEQ” value turned out to be 2.86.

Still in this experiment, the particulars now being: log fold change, ADAMTS7 WT over EQ.
As to “QSOX1_558 (VAAAPELAMGALELESR; listed as Homo sapiens)”, the logFC.mWT.over.mEQ is reported as 1.13.
Still for that read-out and setting: with “SDC4_106 (LEENEVIPKR; listed as Homo sapiens)” the figure was 1.67; with “SERPINH1_27 (AAAPGTAEKLSPKAATLAER; listed as Homo sapiens)”, 3.30.
The same measure, in the same setting: with “SMOC1_35 (LISDRDPQCNLHCSR; listed as Homo sapiens)” the figure was 1.62; with “SPOCK1_126 (HWVGPSNLVK; listed as Homo sapiens)”, 0.93; with “SRGN_50 (LEEKGPMFELLPGESNKIPR; listed as Homo sapiens)”, 3.28.
Turning to “SRGN_51 (EEKGPMFELLPGESNKIPR; listed as Homo sapiens)”, the logFC.mWT.over.mEQ is listed as 1.79.
For the substance “SRGN_60 (LPGESNKIPR; listed as Homo sapiens)”, the logFC.mWT.over.mEQ is 3.25.
Substance “SRGN_62 (GESNKIPR; listed as Homo sapiens)” gave a logFC.mWT.over.mEQ of 3.26.
The substance “STC1_37 (QNSAEVVR; listed as Homo sapiens)” came in with a logFC.mWT.over.mEQ of 4.78.
The same measure, in the same setting: with “STC2_239 (HGEAGHHLPEPSSR; listed as Homo sapiens)” the figure was 1.70; with “STC2_244 (HHLPEPSSR; listed as Homo sapiens)”, 1.35.
On the same count and under the same terms, with “TGFBI_24 (GPAKSPYQLVLQHSR; listed as Homo sapiens)” the figure was 0.71; with “TGFBI_43 ([code q]HGPNVCAVQKVIGTNR; not fully specified; listed as Homo sapiens)”, 0.75; with “TGFBI_50 (AVQKVIGTNR; listed as Homo sapiens)”, 0.64.
Take “TGFBI_208 (GIVTVNCAR; listed as Homo sapiens)”: the logFC.mWT.over.mEQ is listed as 0.59.
Same read-out and setting: with “TGFBI_276 (TLLAPT[code n]EAFEKIPSETLNR; not fully specified; listed as Homo sapiens)” the figure was 0.66.
The substance “TGFBI_497 (VLTPPMGTVMDVLKGDNR; not fully specified (residue 6); listed as Homo sapiens)” yielded a logFC.mWT.over.mEQ of 0.61.
Substance “TGFBI_524 (SAGLTETLNR; listed as Homo sapiens)” yielded a logFC.mWT.over.mEQ of 0.66.
On the same count and under the same terms, with “TGFBI_534 (EGVYTVFAPTNEAFR; listed as Homo sapiens)” the figure was 0.82; with “TG_1017 (GASALLR; listed as Homo sapiens)”, 3.05.
On the same count and under the same terms, with “THBS1_972 (QNDPNWVVR; listed as Homo sapiens)” the figure was 3.59; with “TLN1_1501 (HTSALCNSCR; listed as Homo sapiens)”, 1.48.
“TMEM132A_52 (LLDAPEHFR; listed as Homo sapiens)” came in with a logFC.mWT.over.mEQ of 2.95.
Turning to “VASN_138 (HIQPGAFDTLDR; listed as Homo sapiens)”, the logFC.mWT.over.mEQ was determined as 1.45.
Same read-out and setting: with “VASP_229 (AIAGAKLR; listed as Homo sapiens)” the figure was 4.56; with “VIM_433 (LVDTHSKR; listed as Homo sapiens)”, 2.79.
